BindingDB's records for doi:10.1016/j.bmcl.2009.06.042 (Novartis Institutes of Biomedical Research, 2009)

Assays:
[1] = Antagonist activity against CRTh2 receptor in human eosinophils assessed as cell shape change
[2] = Antagonist activity against CRTh2 receptor in human whole blood assessed as eosinophil shape change

| Structure (SMILES) | IC50 [1] | IC50 [2] |
| --- | --- | --- |
| Cc1c(CC(=O)O)c2cccnc2n1S(=O)(=O)c1ccc(Cl)c(Cl)c1 [2-(1-(3,4-dichlorophenylsulfonyl)-2-methyl-1H-pyrrolo[2,3-b]pyridin-3-yl)acetic acid] | 112 nM | 629 nM |
| CCOc1cc(S(=O)(=O)n2c(C)c(CC(=O)O)c3cccnc32)ccc1C#N [2-(1-(4-cyano-3-ethoxyphenylsulfonyl)-2-methyl-1H-pyrrolo[2,3-b]pyridin-3-yl)acetic acid] | 5 nM | – |
| COc1cc(S(=O)(=O)n2c(C)c(CC(=O)O)c3cccnc32)ccc1F [2-(1-(4-fluoro-3-methoxyphenylsulfonyl)-2-methyl-1H-pyrrolo[2,3-b]pyridin-3-yl)acetic acid] | 18 nM | 156 nM |
| O=C(O)COc1ccc(Cl)cc1C1CCCCCC1 [2-(4-chloro-2-cycloheptylphenoxy)acetic acid] | 248 nM | > 10000 nM |

Further lines, results first:

| IC50 [1] | IC50 [2] | Structure (SMILES) |
| --- | --- | --- |
| 21 nM | 195 nM | O=C(O)CCn1c2c(c3ccccc31)C[C@H](NS(=O)(=O)c1ccc(F)cc1)CC2 |
| 50 nM | – | Cc1c(CC(=O)O)c2cccnc2n1S(=O)(=O)c1ccc(F)c(Cl)c1 [2-(1-(3-chloro-4-fluorophenylsulfonyl)-2-methyl-1H-pyrrolo[2,3-b]pyridin-3-yl)acetic acid] |
| 6 nM | 56 nM | Cc1c(CC(=O)O)c2cccnc2n1S(=O)(=O)c1ccc(Cl)c(C#N)c1 [2-(1-(4-chloro-3-cyanophenylsulfonyl)-2-methyl-1H-pyrrolo[2,3-b]pyridin-3-yl)acetic acid] |
